Calls of active or inactive are those of the source. No cut-off for these calls is given here.
Legend:
Histone deacetylase 1 = Histone deacetylase 1 (Homo sapiens, UniProt Q13547); assay: Inhibition of human recombinant HDAC1 using RHKKAc peptide as substrate incubated for 5 to mins prior to substrate addition measured after 2 hrs
[1] = biological target: T1, Protein deacetylase HDAC6 (Homo sapiens, UniProt Q9UBN7); assay: Inhibition of human recombinant HDAC6 using RHKKAc peptide as substrate incubated for 5 to mins prior to substrate addition measured after 2 hrs
T1 sequence (Q9UBN7 whole entry): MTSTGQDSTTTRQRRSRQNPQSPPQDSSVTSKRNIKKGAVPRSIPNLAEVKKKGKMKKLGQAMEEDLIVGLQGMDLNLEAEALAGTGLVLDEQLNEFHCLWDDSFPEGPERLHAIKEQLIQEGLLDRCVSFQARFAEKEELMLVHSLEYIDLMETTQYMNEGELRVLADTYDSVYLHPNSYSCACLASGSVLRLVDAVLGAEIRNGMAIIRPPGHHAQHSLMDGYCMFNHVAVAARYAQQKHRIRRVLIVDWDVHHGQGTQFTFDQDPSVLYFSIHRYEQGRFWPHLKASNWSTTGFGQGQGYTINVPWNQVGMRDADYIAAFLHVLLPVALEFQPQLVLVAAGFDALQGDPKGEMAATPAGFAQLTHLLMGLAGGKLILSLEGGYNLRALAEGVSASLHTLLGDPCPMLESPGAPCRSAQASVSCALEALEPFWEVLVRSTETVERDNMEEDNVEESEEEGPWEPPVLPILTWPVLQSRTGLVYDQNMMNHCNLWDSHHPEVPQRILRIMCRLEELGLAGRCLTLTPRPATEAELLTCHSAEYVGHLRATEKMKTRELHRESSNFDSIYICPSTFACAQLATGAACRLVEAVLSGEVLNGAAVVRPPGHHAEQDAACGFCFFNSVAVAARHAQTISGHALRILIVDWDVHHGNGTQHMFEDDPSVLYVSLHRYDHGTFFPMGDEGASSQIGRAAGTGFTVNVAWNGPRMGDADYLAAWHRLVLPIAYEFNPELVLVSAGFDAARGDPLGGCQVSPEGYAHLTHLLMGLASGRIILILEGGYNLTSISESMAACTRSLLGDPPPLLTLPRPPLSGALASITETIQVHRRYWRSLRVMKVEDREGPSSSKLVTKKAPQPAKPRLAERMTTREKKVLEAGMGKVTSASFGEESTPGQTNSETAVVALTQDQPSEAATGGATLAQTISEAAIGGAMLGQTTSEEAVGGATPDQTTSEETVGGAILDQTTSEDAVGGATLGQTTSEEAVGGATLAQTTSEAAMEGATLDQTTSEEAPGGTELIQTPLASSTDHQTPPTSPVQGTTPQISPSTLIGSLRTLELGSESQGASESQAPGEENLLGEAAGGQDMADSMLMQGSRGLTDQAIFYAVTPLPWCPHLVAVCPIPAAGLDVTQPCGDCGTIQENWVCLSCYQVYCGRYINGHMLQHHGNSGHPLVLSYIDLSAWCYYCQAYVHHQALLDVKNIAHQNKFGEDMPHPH

Homo sapiens = organism: Homo sapiens; assay: Selectivity ratio of IC50 for human recombinant HDAC1 to IC50 for human recombinant HDAC6
T-cell [2] = assay: Immunosuppressive activity against C57BL/6 mouse CFSE-labelled effector T cells assessed as inhibition of T regulatory cells-mediated proliferation at 1 uM after 3 to 4 days by flow cytometry relative to control; assay type: functional, cell-based
[3] = Immunosuppressive activity against C57BL/6 mouse CFSE-labelled effector T cells assessed as Treg suppression of Teffector proliferation AUC at 1 uM after 3 to 4 days by flow cytometry relative to control; assay type: functional, T-cell
[4] = Immunosuppressive activity against C57BL/6 mouse CFSE-labelled effector T cells assessed as Treg suppression of Teffector proliferation AUC at […] after 3 to 4 days by flow cytometry relative to control; assay type: functional, T-cell
[5] = Immunosuppressive activity against C57BL/6 mouse CFSE-labelled effector T cells assessed as inhibition of T regulatory cell-mediated proliferation at Treg:Teff ratio of 1:4 at 1 uM after 3 to 4 days by flow cytometry (reference value: 74.2%); assay type: functional; settings: C57BL/6, T-cell
[6] = Immunosuppressive activity against C57BL/6 mouse CFSE-labelled effector T cells assessed as inhibition of T regulatory cells-mediated proliferation at Treg:Teff ratio of 1:1 at 1 uM after 3 to 4 days by flow cytometry (reference value: 42.2%); assay type: functional; settings: C57BL/6, T-cell
[7] = Immunosuppressive activity against C57BL/6 mouse CFSE-labelled effector T cells assessed as inhibition of T regulatory cells-mediated proliferation at Treg:Teff ratio of 1:2 at 1 uM after 3 to 4 days by flow cytometry (reference value: 64.8%); assay type: functional; settings: C57BL/6, T-cell
[8] = Immunosuppressive activity against C57BL/6 mouse CFSE-labelled effector T cells assessed as inhibition of T regulatory cells-mediated proliferation at Treg:Teff ratio of 1:16 at 1 uM after 3 to 4 days by flow cytometry (reference value: 86.9%); assay type: functional; settings: C57BL/6, T-cell
[9] = Immunosuppressive activity against C57BL/6 mouse CFSE-labelled effector T cells assessed as Treg suppression of Teffector proliferation AUC at 0.5 uM after 3 to 4 days by flow cytometry relative to control; assay type: functional, T-cell
T-cell [10] = assay: Immunosuppressive activity against C57BL/6 mouse CFSE-labelled effector T cells assessed as inhibition of T regulatory cells-mediated proliferation at 0.25 uM after 3 to 4 days by flow cytometry relative to control; assay type: functional, cell-based
Mus musculus = assay: Immunosuppressive activity against HDAC6 deficient CD4+CD25- CFSE-labelled effector T cells xenografted in RAG-/- mouse assessed as inhibition of FoxP3+,CD4+CD25+ T regulatory cells-mediated proliferation at 1 mg/kg, ip administered qd for 7 days measured on day 8 by flow cytometry; assay type: functional, organism-based; set-up: dose 1 mg/kg; settings: T-cell
[11] = Immunosuppressive activity against C57BL/6 mouse CFSE-labelled effector T cells assessed as Treg suppression of Teffector proliferation AUC at 0.25 uM after 3 to 4 days by flow cytometry relative to control; assay type: functional, T-cell
[12] = Immunosuppressive activity against C57BL/6 mouse CFSE-labelled effector T cells assessed as inhibition of T regulatory cell-mediated proliferation at Treg:Teff ratio of 1:8 at 0.5 uM after 3 to 4 days by flow cytometry (reference value: […]); assay type: functional; settings: C57BL/6, T-cell
[13] = Immunosuppressive activity against C57BL/6 mouse CFSE-labelled effector T cells assessed as inhibition of T regulatory cell-mediated proliferation at Treg:Teff ratio of 1:4 at 0.5 uM after 3 to 4 days by flow cytometry (reference value: 74.2%); assay type: functional; settings: C57BL/6, T-cell
T-cell [14] = assay: Immunosuppressive activity against C57BL/6 mouse CFSE-labelled effector T cells assessed as inhibition of T regulatory cell-mediated cell division at Treg:Teff ratio of 1:1 at 0.5 uM after 3 to 4 days by flow cytometry (reference value: 42.2%); assay type: functional; settings: C57BL/6, T-cell
T-cell [15] = assay: Immunosuppressive activity against C57BL/6 mouse CFSE-labelled effector T cells assessed as inhibition of T regulatory cell-mediated cell division at Treg:Teff ratio of 1:2 at 0.5 uM after 3 to 4 days by flow cytometry (reference value: 64.8%); assay type: functional; settings: C57BL/6, T-cell
[16] = Immunosuppressive activity against C57BL/6 mouse CFSE-labelled effector T cells assessed as inhibition of T regulatory cell-mediated proliferation at Treg:Teff ratio of 1:16 at 0.5 uM after 3 to 4 days by flow cytometry (reference value: 86.9%); assay type: functional; settings: C57BL/6, T-cell

Chain of Histone deacetylase 1 (Q13547 whole entry): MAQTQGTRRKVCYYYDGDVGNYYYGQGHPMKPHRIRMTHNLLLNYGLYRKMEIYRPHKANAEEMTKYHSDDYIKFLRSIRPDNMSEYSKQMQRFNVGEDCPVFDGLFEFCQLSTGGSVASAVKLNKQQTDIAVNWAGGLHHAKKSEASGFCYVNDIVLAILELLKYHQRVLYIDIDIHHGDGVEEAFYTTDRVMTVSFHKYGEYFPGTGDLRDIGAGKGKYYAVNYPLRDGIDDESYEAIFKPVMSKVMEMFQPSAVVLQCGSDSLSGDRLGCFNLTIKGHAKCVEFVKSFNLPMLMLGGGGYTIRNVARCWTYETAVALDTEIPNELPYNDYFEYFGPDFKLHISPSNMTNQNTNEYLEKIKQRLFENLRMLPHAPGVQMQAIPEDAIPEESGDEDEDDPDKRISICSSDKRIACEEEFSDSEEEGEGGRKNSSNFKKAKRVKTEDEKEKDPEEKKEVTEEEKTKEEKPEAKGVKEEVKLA

Compound	IC50 (Histone deacetylase 1)	IC50 [1]	Ratio IC50 (Homo sapiens)	other results
NC(=O)CCN1CCc2c(c3ccccc3n2Cc2ccc(C(=O)NO)cc2)C1	1.61 µM	0.000459 µM	3510	–
CN1CCc2c(n(Cc3ccc(C(=O)NO)cc3)c3ccccc23)C1	–	0.0014 µM	3700	inhibition (T-cell [2]): Active; Ratio [3]: 1.63
O=C(NO)c1ccc(Cn2c3c(c4ccccc42)CNCC3)cc1	16.4 µM	0.00656 µM	2500	Ratio [4]: 1.76
CC(C)(C)OC(=O)N1CCc2c(c3ccccc3n2Cc2ccc(C(=O)NO)cc2)C1	8.62 µM	0.00225 µM	3830	–
CN1CCc2c(c3ccccc3n2Cc2ccc(C(=O)NO)cc2)C1 [TUBASTATIN A]	–	–	–	inhibition at 1 µM [5]: 58.7%; inhibition at 1 µM [6]: 37.8%; inhibition at 1 µM [7]: 44.4%; inhibition at 1 µM [8]: 75.4%
NC(=O)CCCN1CCc2c(c3ccccc3n2Cc2ccc(C(=O)NO)cc2)C1	7.45 µM	0.00406 µM	1830	–
O=C(NO)c1ccc(Cn2c3c(c4ccccc42)CN(Cc2ccccc2)CC3)cc1	10.3 µM	0.00144 µM	7150	–
C=CCN1CCc2c(c3ccccc3n2Cc2ccc(C(=O)NO)cc2)C1	5.82 µM	0.000972 µM	5990	Ratio [9]: 1.65
CCN1CCc2c(c3ccccc3n2Cc2ccc(C(=O)NO)cc2)C1	10.2 µM	0.00299 µM	3410	–
CN1CCc2c(c3cc(Cl)ccc3n2Cc2ccc(C(=O)NO)cc2)C1	1.02 µM	0.00102 µM	1000	–
CN1CCc2c(c3cc(Br)ccc3n2Cc2ccc(C(=O)NO)cc2)C1	0.427 µM	0.000704 µM	606	inhibition (T-cell [10]): Active; inhibition (Mus musculus): Active; Ratio [11]: 1.87
CN1CCc2c(c3cc(C(C)(C)C)ccc3n2Cc2ccc(C(=O)NO)cc2)C1	14.1 µM	0.0225 µM	626	–
O=C(NO)c1ccc(Cn2c3c(c4ccccc42)CCNC3)cc1	9.7 µM	0.00249 µM	3900	–
O=C(NO)c1ccc(Cn2c3c(c4ccccc42)CN(Cc2ccncc2)CC3)cc1	2.74 µM	0.000582 µM	4710	inhibition at 0.5 µM [12]: 69.7%; inhibition at 0.5 µM [13]: 62.3%; inhibition at 0.5 µM (T-cell [14]): 37.8%; inhibition at 0.5 µM (T-cell [15]): 51.6%; inhibition at 0.5 µM [16]: 72.8%; inhibition (Mus musculus): Active; Ratio [9]: 2.13
COc1cccc(CN2CCc3c(c4ccccc4n3Cc3ccc(C(=O)NO)cc3)C2)c1	5.19 µM	0.00296 µM	1750	Ratio [9]: 1.9
Cc1cc(C)c2c3c(n(Cc4ccc(C(=O)NO)cc4)c2c1)CCN(C)C3	10.3 µM	0.0384 µM	268	–

Continued by falling IC50 (Histone deacetylase 1), values first:

IC50 (Histone deacetylase 1)	IC50 [1]	Ratio IC50 (Homo sapiens)	Compound	other results
22.1 µM	0.0347 µM	636	Cc1cccc2c3c(n(Cc4ccc(C(=O)NO)cc4)c12)CCN(C)C3	–
15.7 µM	0.00896 µM	1750	CC(C)N1CCc2c(c3ccccc3n2Cc2ccc(C(=O)NO)cc2)C1	–
4.64 µM	0.00305 µM	1520	COc1ccc(CN2CCc3c(c4ccccc4n3Cc3ccc(C(=O)NO)cc3)C2)cc1	–
4.32 µM	0.000872 µM	4950	O=C(NO)c1ccc(Cn2c3c(c4ccccc42)CCN(Cc2ccccc2)C3)cc1	–
4.05 µM	0.0115 µM	352	Cc1ccc2c3c(n(Cc4ccc(C(=O)NO)cc4)c2c1)CCN(C)C3	–
3.98 µM	0.000799 µM	4980	NC(=O)CN1CCc2c(c3ccccc3n2Cc2ccc(C(=O)NO)cc2)C1	Ratio [4]: 1.69
2.07 µM	0.0049 µM	422	Cc1ccc2c(c1)c1c(n2Cc2ccc(C(=O)NO)cc2)CCN(C)C1	–
1.88 µM	0.00306 µM	614	COc1ccc2c(c1)c1c(n2Cc2ccc(C(=O)NO)cc2)CCN(C)C1	–

Reference: ChEMBL document CHEMBL2016572, “Second-generation histone deacetylase 6 inhibitors enhance the immunosuppressive effects of Foxp3+ T-regulatory cells” (J Med Chem, 2012)
